Reference: patent US12194039B2, “Methods of treating heart failure by administering omecamtiv mecarbil” (Cytokinetics, Inc., priority 2020, dated 2025)
Read-outs that look alike come from different tables or passages of the source.

Tested on: patients with HFrEF by ejection fraction quartile
Assay type: in vivo, human
Parameters: Change from baseline in KCCQ Total Symptom Score, least square mean / KCCQ Total Symptom Score Inpatient, Treatment Difference, least squares mean / KCCQ Total Symptom Score Outpatient, Treatment Difference, least squares mean / KCCQ Total Symptom Score, Treatment Difference, least squares mean: scale not given here
Details: for Troponin I (Ratio) / Troponin I, Treatment Difference (95% CI) / Creatinine, Treatment Difference / Heart rate, Treatment Difference / KCCQ Total Symptom Score, Treatment Difference, least squares mean / NT-proBNP (Ratio) / Potassium, Treatment Difference / Systolic BP, Treatment Difference / KCCQ Total Symptom Score Inpatient, Treatment Difference, least squares mean / KCCQ Total Symptom Score Outpatient, Treatment Difference, least squares mean: baseline to Week 24; for Change from baseline in KCCQ Total Symptom Score, least square mean: Week 24
Experimental: Continuous variables were summarized via means and standard deviations or medians and interquartile ranges, as appropriate. Categorical variables are summarized with counts and percentages. Tests of trend across categories were conducted via linear regression, Cuzick's non-parametric trend test, and Chi-squared tests of trend, respectively. Treatment effects on continuous outcomes were assessed via linear regression models adjusted for the corresponding baseline value of the parameter of interest. Survival analyses were conducted using Poisson regression models to estimate incidence rates, rate differences, and rate ratios and Cox proportional hazards models to estimate hazard ratios. […] To allow for potentially non-linear associations between ejection fraction and time-to-event outcomes, restricted cubic splines were utilized in the Poisson regression models with 3 knots. All analyses were conducted using STATA 16 (College Station, Tex.). P-values <0.05 were considered statistically significant. Due to the exploratory nature of these analyses, no adjustments were made for multiple comparisons.
Within each randomization setting subgroup least squares mean is from the mixed model which includes baseline total symptom score value, region, baseline eGFR, scheduled visit, treatment group and interaction of treatment with scheduled visit as covariates. Influence of Ejection Fraction on the Treatment Effect of Omecamtiv Mecarbil

COC(=O)N1CCN(Cc2cccc(NC(=O)Nc3ccc(C)nc3)c2F)CC1 [omecamtiv mecarbil]
Troponin I (Ratio) (EF 29-32%, vs placebo): 1.27 | Troponin I, Treatment Difference (95% CI) (EF 29-32%, vs placebo): 4 (3, 5) ng/L | Adjudicated First Major Cardiac Ischemic Events, % (EF 33%, OM group): 6.5% | Adjudicated First Stroke, % (EF 33%, OM group): 1.8% | Adverse Event: Ventricular Tachyarrhythmia, % (EF 33%, OM group): 6.4% | Any treatment Emergent Serious Adverse Events, % (EF 33%, OM group): (55.5%) | Positively Adjudicated Myocardial Infarction, % (EF 33%, OM group): 3.8% | Serious Adverse Event: Ventricular Arrhythmia Requiring Treatment, % (EF 33%, OM group): 2.5% | Adjudicated First Major Cardiac Ischemic Events, Relative Risk (EF 33%, OM vs placebo): 0.99 | Adjudicated First Stroke, Relative Risk (EF 33%, OM vs placebo): 0.77 | Adverse Event: Ventricular Tachyarrhythmia, Relative Risk (EF 33%, OM vs placebo): 0.88 | Any treatment Emergent Serious Adverse Events, Relative Risk (EF 33%, OM vs placebo): 1.02 | Positively Adjudicated Myocardial Infarction, Relative Risk (EF 33%, OM vs placebo): 1.02 | Serious Adverse Event: Ventricular Arrhythmia Requiring Treatment, Relative Risk (EF 33%, OM vs placebo): 1.11 | 1st HF Hospitalization (%) (EF ≤22%, OM group): (30%) | 1st HF Hospitalization Rate (EF ≤22%, OM group): 20.9 per 100 patient years | 1st HF Hospitalization n/N (EF ≤22%, OM group): 340/1127 | First HF Event (%) (EF ≤22%, OM group): (31%) | First HF Event Rate (EF ≤22%, OM group): 21.7 per 100 patient years | First HF Event n/N (EF ≤22%, OM group): 351/1127 | Primary Outcome (%) (EF ≤22%, OM group): (41%) | Primary Outcome Rate (EF ≤22%, OM group): 28.3 per 100 patient years | Primary Outcome n/N (EF ≤22%, OM group): 457/1127 | Total HF Events, Events (EF ≤22%, OM group): 719 | Total HF Events, Rate (EF ≤22%, OM group): 37.1 per 100 pt-yrs | Total HF Hospitalizations, Events (EF ≤22%, OM group): 679 | Total HF Hospitalizations, Rate (EF ≤22%, OM group): 35.1 per 100 pt-yrs | 1st HF Hospitalization ARR (EF ≤22%, OM vs placebo): 6.1 per 100 patient years | 1st HF Hospitalization HR (95% CI) (EF ≤22%, OM vs placebo): 0.82 (0.71, 0.94) | First HF Event ARR (EF ≤22%, OM vs placebo): 6.6 per 100 patient years | First HF Event HR (95% CI) (EF ≤22%, OM vs placebo): 0.81 (0.70, 0.93) | Primary Outcome ARR (EF ≤22%, OM vs placebo): 7.4 per 100 patient years | Primary Outcome HR (95% CI) (EF ≤22%, OM vs placebo): 0.83 (0.73, 0.95) | Total HF Events, ARR (EF ≤22%, OM vs placebo): 11.3 per 100 pt-yrs | Total HF Events, Ratio (95% CI) (EF ≤22%, OM vs placebo): 0.83 (0.70, 1.01) | Total HF Hospitalizations, ARR (EF ≤22%, OM vs placebo): 9.9 per 100 pt-yrs | Total HF Hospitalizations, Ratio (95% CI) (EF ≤22%, OM vs placebo): 0.84 (0.70, 1.01) | Creatinine, Treatment Difference (EF ≤22%, vs placebo): -0.01 mg/dL | Heart rate, Treatment Difference (EF ≤22%, vs placebo): −1.6 bpm | KCCQ Total Symptom Score, Treatment Difference, least squares mean (EF ≤22%, vs placebo): +1.6 | NT-proBNP (Ratio) (EF ≤22%, vs placebo): 0.78 | Potassium, Treatment Difference (EF ≤22%, vs placebo): 0.01 mmol/L | Systolic BP, Treatment Difference (EF ≤22%, vs placebo): 0.9 mmHg | Troponin I (Ratio) (EF ≤22%, vs placebo): 1.19 | Troponin I, Treatment Difference (95% CI) (EF ≤22%, vs placebo): 5 (4, 6) ng/L | 1st HF Hospitalization (%) (EF ≥33%, OM group): 26% | 1st HF Hospitalization Rate (EF ≥33%, OM group): 15.5 per 100 patient years | 1st HF Hospitalization n/N (EF ≥33%, OM group): 228/892 | All-cause Death (%) (EF ≥33%, OM group): 22% | All-cause Death Rate (EF ≥33%, OM group): 11.8 per 100 patient years | All-cause Death n/N (EF ≥33%, OM group): 200/892 | First HF Event (%) (EF ≥33%, OM group): 26% | First HF Event Rate (EF ≥33%, OM group): 16.2 per 100 patient years | First HF Event n/N (EF ≥33%, OM group): 236/892 | Primary Outcome (%) (EF ≥33%, OM group): 33% | Primary Outcome Rate (EF ≥33%, OM group): 20.5 per 100 patient years | Primary Outcome n/N (EF ≥33%, OM group): 298/892 | Total HF Events, Events (EF ≥33%, OM group): 483 | Total HF Events, Rate (EF ≥33%, OM group): 28.5 per 100 pt-yrs | Total HF Hospitalizations, Events (EF ≥33%, OM group): 449 | Total HF Hospitalizations, Rate (EF ≥33%, OM group): 26.5 per 100 pt-yrs | 1st HF Hospitalization ARR (EF ≥33%, OM vs placebo): −1.2 per 100 patient years | 1st HF Hospitalization HR (95% CI) (EF ≥33%, OM vs placebo): 1.03 (0.85, 1.24) | All-cause Death ARR (EF ≥33%, OM vs placebo): −0.1 per 100 patient years | All-cause Death HR (95% CI) (EF ≥33%, OM vs placebo): 0.98 (0.80, 1.20) | First HF Event ARR (EF ≥33%, OM vs placebo): −1.3 per 100 patient years | First HF Event HR (95% CI) (EF ≥33%, OM vs placebo): 1.04 (0.86, 1.25) | Primary Outcome ARR (EF ≥33%, OM vs placebo): −0.4 per 100 patient years | Primary Outcome HR (95% CI) (EF ≥33%, OM vs placebo): 0.99 (0.84, 1.16) | Total HF Events, ARR (EF ≥33%, OM vs placebo): −4.7 per 100 pt-yrs | Total HF Events, Ratio (95% CI) (EF ≥33%, OM vs placebo): 1.13 (0.90, 1.43) | Total HF Hospitalizations, ARR (EF ≥33%, OM vs placebo): −3.6 per 100 pt-yrs | Total HF Hospitalizations, Ratio (95% CI) (EF ≥33%, OM vs placebo): 1.12 (0.89, 1.43) | Creatinine, Treatment Difference (EF ≥33%, vs placebo): 0.02 mg/dL | Heart rate, Treatment Difference (EF ≥33%, vs placebo): −1.1 bpm | KCCQ Total Symptom Score, Treatment Difference, least squares mean (EF ≥33%, vs placebo): −1.0 | NT-proBNP (Ratio) (EF ≥33%, vs placebo): 0.97 | Potassium, Treatment Difference (EF ≥33%, vs placebo): 0.02 mmol/L | Systolic BP, Treatment Difference (EF ≥33%, vs placebo): −1.2 mmHg | Troponin I (Ratio) (EF ≥33%, vs placebo): 1.27 | Troponin I, Treatment Difference (95% CI) (EF ≥33%, vs placebo): 3 (2, 4) ng/L | Change from baseline in KCCQ Total Symptom Score, least square mean (Inpatient, EF 23-28%): 21.51 | KCCQ Total Symptom Score Inpatient, Treatment Difference, least squares mean (Inpatient, EF 23-28%, vs placebo): +0.2 | Change from baseline in KCCQ Total Symptom Score, least square mean (Inpatient, EF 29-32%): 22.34 | KCCQ Total Symptom Score Inpatient, Treatment Difference, least squares mean (Inpatient, EF 29-32%, vs placebo): +4.8 | Change from baseline in KCCQ Total Symptom Score, least square mean (Inpatient, EF ≤22%): 27.70 | KCCQ Total Symptom Score Inpatient, Treatment Difference, least squares mean (Inpatient, EF ≤22%, vs placebo): +4.9 | Change from baseline in KCCQ Total Symptom Score, least square mean (Inpatient, EF ≥33%): 22.09 | KCCQ Total Symptom Score Inpatient, Treatment Difference, least squares mean (Inpatient, EF ≥33%, vs placebo): −0.0 | Change from baseline in KCCQ Total Symptom Score, least square mean (Outpatient, EF 23-28%): 5.61 | KCCQ Total Symptom Score Outpatient, Treatment Difference, least squares mean (Outpatient, EF 23-28%, vs placebo): −0.6 | Change from baseline in KCCQ Total Symptom Score, least square mean (Outpatient, EF 29-32%): 5.30 | KCCQ Total Symptom Score Outpatient, Treatment Difference, least squares mean (Outpatient, EF 29-32%, vs placebo): −0.8 | Change from baseline in KCCQ Total Symptom Score, least square mean (Outpatient, EF ≤22%): 7.08 | KCCQ Total Symptom Score Outpatient, Treatment Difference, least squares mean (Outpatient, EF ≤22%, vs placebo): +0.7 | Change from baseline in KCCQ Total Symptom Score, least square mean (Outpatient, EF ≥33%): 5.18 | KCCQ Total Symptom Score Outpatient, Treatment Difference, least squares mean (Outpatient, EF ≥33%, vs placebo): −1.5 | Increase in troponin I, median (across the EF quartiles, limit of detection 6 ng/L, upper reference limit 40 ng/L): 3 to 5 ng/L | Incidence of adverse events, omecamtiv mecarbil vs placebo (by EF quartile, result in words): no significant differences | Effect on symptoms as assessed by the KCCQ-TSS as a function of EF (inpatient or outpatient settings, result in words): no consistent beneficial effect | Absolute risk reduction, primary composite endpoint (lowest ejection fraction quartile): 7.4 events per 100 patient-years | Relative risk reduction, primary composite endpoint (lowest ejection fraction quartile (EF ≤22%)): 17% | Number-needed-to-treat to prevent an event (over 3 years, lowest ejection fraction quartile): 11.8 | Effect on cardiovascular death (overall population and as a function of baseline ejection fraction, result in words): no overall effect | Primary endpoint, hazard ratio (patients with EF ≤28%, vs placebo): 0.84 | Primary endpoint, hazard ratio (patients with EF>28%, vs placebo): 1.04 | Reduction in time-to-first heart failure event or cardiovascular death (primary endpoint) (patients with ejection fraction ≤28% (below the median)): 16% | Effect on all-cause mortality (result in words): no effect | Relative risk reduction, primary composite endpoint (second lowest ejection fraction quartile (EF 23-28%)): 15% | Incidence of adjudicated stroke (vs placebo, result in words): apparent reduction | Change of NT-proBNP (week 24, highest EF quartile): 3% | Reduction of NT-proBNP (week 24, lowest EF quartile (≤22%)): 22%
